melting point [°C]	SMILES
138 to 140	N#Cc1cccc(NC(=O)c2ccc3ccccc3c2)c1
169 to 170	CN1CCN(c2ccc(N/C=C3\C(=O)NC(=O)c4ccc(C#Cc5ccccc5)cc43)cc2)CC1
190	CC(=O)COc1cc2oc(=O)cc(C)c2cc1C
158 to 159	CCCn1nc2c(N)nc3ccccc3c2c1CC(C)(C)NC(=O)CC
80	CC#CCOc1ccc(S(=O)(=O)C(C(=O)NO)C2CCN(C(=O)OC(C)(C)C)CC2)cc1 (stereo unspecified)
202 to 204	Cc1nc(Cl)c2c(C)c(C)n(-c3c(Br)cc(C(F)(F)F)cc3Br)c2n1
125 to 126	CCN(CC)S(=O)(=O)c1ccc2c(c1)C(C(Cl)(Cl)Cl)OC(C(Cl)(Cl)Cl)O2 (stereo unspecified)
114 to 116	O=C(CN(C(=O)OCc1ccccc1)c1ccc(Cl)cc1)NCCc1ccc(OCc2ccccc2)c(OCc2ccccc2)c1
234 to 235	O=C(O)c1ccc(C2=NCCS2)nc1
107 to 108	CC(C)COc1ccc2c(c1)CCC1C2=CCC2(C)C(=O)CCC12 (stereo unspecified)
226	O=C(Nc1nccs1)c1c(C(F)F)nc2c(C(F)(F)F)cccc2c1O
202 to 204	C1=C(/C=C/c2cccs2)CCN(Cc2c[nH]c3ncccc23)C1
201 to 202	Cc1cc(N)c(C(=O)O)cc1F
104 to 105	O=[N+]([O-])c1ccccc1NCc1cc(F)cc(F)c1
125 to 128	CC(=O)N[C@@H](C)c1ccc(C(C)=O)cc1
107 to 108	O=[N+]([O-])c1cnc2cccnc2c1NCCOc1ccccc1
47.1 to 48.4	CCOC(=O)CCCOc1cccc2cc(C(C)=O)oc12
65.7	COc1cccc(S(=O)(=O)N(CC(N)=O)c2ccc(Cl)cc2Cc2ccccc2Cl)c1

melting point [°C]	SMILES
71 to 75	Cc1ccc(S(=O)(=O)N2CCC[C@@H]2C(=O)N[C@H](Cc2ccccc2)C(=O)O)cc1
199 to 201	CN(C)c1nc2cc(NC(=O)c3c(C(=O)N4CCCC4)cnn3C)ccn2n1
111 to 113	CC(=O)SC[C@H](NC(=O)OC(C)(C)C)C(=O)NC(CS)C(C)=O (stereo partly specified)
103 to 105	O=C1CCc2cc(Br)ccc2O1
157 to 159	Nc1cccc(-c2nn(Cc3oc4ccccc4c(=O)c3-c3ccccc3)c3ncnc(N)c23)c1
> 300	Nc1ccc2nc(O)c(O)nc2c1N
205 to 206	Cc1ccc2oc(=O)n(-c3ccnc(NC(=O)NCc4ccccn4)c3)c2c1
271 to 274	O=c1c2c(Cc3ccc(F)cc3)n[nH]c2c2cccnc2n1-c1ccccc1
107 to 109	COC(=O)CCCc1cc2cc(Cl)ccc2n1S(=O)(=O)c1cccc(OC)c1
153 to 155	C=CCOc1ccc(C)c2c1C(C)(C)C(=O)N2
120 to 121	CCNc1cc2c(cc1Cl)CCN(C)C[C@@H]2c1ccccc1
> 114	Cc1cc(N(C)C)ccc1-c1c(O)c(=O)c1=O
220 to 225	CC12CCC3c4ccc(O)cc4C(O)C(Sc4ccc(O)cc4)C3C1CCC2O (stereo unspecified)
121	CCOC(=O)[C@H](Cc1ccc(-c2c(OC)cc(CO)cc2OC)cc1)NC(=O)c1c(Cl)cccc1Cl
284 to 290	CS(=O)(=O)c1ccc2ncn(/C=C/C(=O)O)c(=O)c2c1
294 to 296	NC(=O)c1cc(-c2ccccc2)c(=O)n2c1-c1ccccc1C2
147 to 149	CCc1c(-c2ccc(O)cc2)c2ccc3c(NC(C)=O)ccc1n32

Continued, compound first:

SMILES	melting point [°C]
Cc1nc(-c2nc(C)c(-c3ccnc(Nc4cc(Cl)c(N5CCOCC5)c(Cl)c4)n3)s2)cs1	> 300
Cc1nc2sccn2c(=O)c1CCN1CCC2Nc3ccccc3C2C1 (stereo unspecified)	152
COc1ccc(-c2nc(C(F)(F)F)c[nH]2)cc1	204 to 206
Cc1nonc1-n1cc(C(=O)O)c(=O)c2cc(F)c(F)cc21	238 to 241
COC(=O)C(C(=O)OC)c1ccccc1C(=O)O	119 to 120
N#Cc1ccc(C(=O)NCCC(=O)NC(CC(=O)OCc2ccccc2)C(=O)NC(Cc2ccccc2)C(=O)OCc2ccccc2)nc1 (stereo unspecified)	157 to 158
[N-]=[N+]=N[C@H]1C[C@H](C(=O)O)C1	39 to 41
CCCCOc1cc(OCCCc2cn(-c3ccc(C(F)(F)F)cn3)nc2OCC)ccc1CCC(=O)O	123 to 124
Cc1nc(-c2ccc(C#N)cc2)sc1C(=O)N[C@H](C)[C@](O)(Cn1cncn1)c1ccc(C(F)(F)F)cc1 (relative stereo)	105 to 111
CN(C)CCNC(=O)N1CCC(Sc2ccc(Cl)cc2)C1 (stereo unspecified)	97 to 98.5
N#Cc1nn(-c2c(Cl)cc(C(F)(F)F)cc2Cl)c(Cl)c1C1CC1(Br)Br (stereo unspecified)	104
Fc1ccc(Nc2ncnc3ccc(-c4cccs4)cc23)cc1Cl	205 to 208
Cc1nc2c(N)nc3ccccc3c2n1CCC1(O)CCCCC1	> 252
O=S(=O)(c1ccccc1)N1CCC(C(=Nc2ccc(F)cc2)c2ccc(F)cc2)CC1	123 to 124
O=C(NCCO)c1cccc(-c2ccc3ccn(Cc4ccc(Cl)cc4Cl)c3n2)c1	161 to 162
CCCc1c(OCCCCCC(=O)c2ccc(OC)c(OC)c2)ccc(C(=O)O)c1O	114 to 117
O=C(O)c1cc(C(F)(F)F)ccc1O	149 to 151
CC(C)(C)c1cc(CN)cc(C(C)(C)C)c1O	159
COC(=O)C(C(C)C)S(=O)(=O)N(C(C)=O)c1nc(OC)cc(OC)n1 (stereo unspecified)	100 to 102
NCCNc1cc(NCCO)c(Cl)cc1[N+](=O)[O-]	160
CC(=O)C(=Cc1cccc([N+](=O)[O-])c1)C(=O)OCCCl	95 to 97
CNC(=O)C(C)Nc1nc(-c2ccc(F)c3ccccc23)cc(C(C)C)n1 (stereo unspecified)	141 to 142

SMILES	melting point [°C]
COc1ccc(Br)cc1-c1nc2ccc(OC(F)(F)F)cc2[nH]1	175 to 178
CC(=O)Nc1ccc(Oc2ccc3c(c2)OCC(=O)N3)cc1	230 to 232
C=CCNc1cc(Oc2ccccc2)ccc1[N+](=O)[O-]	67 to 68
COc1ccc(-c2nc(-c3cccn3Cc3ccccc3)[nH]c2-c2ccc(OC)cc2)cc1	183
CCOC(=O)CSc1nnc(S)s1	67 to 68
Cc1nc(N=CN(C)C)sc1C	47 to 58
CCCC(=O)Nc1n[nH]c2cc(-c3ccc(O)cc3)c(-c3ccccc3)cc12	220
CCN(CC)C(=O)Oc1nc(-c2ccccc2)cc2ccccc12	81
O=C(OCC1OC(OC(=O)c2ccccc2)C(O)C1OC(=O)c1ccccc1)c1ccccc1 (stereo unspecified)	137 to 138
CN(C)C(=O)Nc1ccc(OCC(=O)c2ccccc2)c(Cl)c1	148 to 150
O=C1c2cc(O)ccc2OCC1Cc1c[nH]c2ccccc12 (stereo unspecified)	188 to 190
CN(C)C(=S)Oc1ccc(S(=O)(=O)c2ccc(C#N)cc2)cc1	158 to 167
CCCN1C(=O)C(=O)c2cc(SCCCc3ccc(C(=O)O)cc3)ccc21	140 to 142
COc1ccc(-c2ccc(-c3ccc(F)cc3)nc2-c2ccc(OC)cc2)cc1	118 to 120
NC(=O)c1nc(-c2ccccn2)n2c1CN=C(c1ccccc1Cl)c1cc(Cl)ccc1-2	255 to 257
Cc1nc(C)c(Cl)c(NCc2nccc(SCCCSCC3CN(C)C(=O)O3)c2C)n1 (stereo unspecified)	121
N#Cc1cc(-c2ccccc2)[nH]c1Sc1ccc2ccccc2c1	93 to 94.4
CC(Oc1ccc(Oc2ccc(C(F)(F)F)cc2)cc1)C(=O)O (stereo unspecified)	138 to 140
CCCCCCCCCCCCCCCCCCOc1cc(OCCCOc2ccc(S(C)(=O)=O)cc2)cc(C(=O)O)c1	110 to 111
CCCCc1c(OC(=O)C(C)(C)C)n(-c2ccc(OC(C)=O)cc2)n(-c2ccccc2)c1=O	151 to 158
O=C(O)CCCCc1c[nH]c2ccccc12	80 to 83
CC(=O)N1CCCN(NC(=O)c2ccc(F)cc2)CC1	117 to 119

SMILES	melting point [°C]
O=C1CC(NC(=O)C2CCCN3C(=O)CCC(NC(=O)c4ccccc4)C(=O)N23)C(OC2CCCC2)O1 (stereo unspecified)	172 to 180
Nc1cc(Cl)nc(OCc2cccc3ccccc23)n1	160 to 161
N#Cc1c[nH]cc1C(F)(F)F	96 to 97
O=C1NCN(c2ccccc2)C12CCN(CCCC1(c3ccc(F)cc3F)OCCO1)CC2	58 to 62
O=C1CNC(c2cccc(Cl)c2)=NN1	228 to 230
Cc1cc(C)c2c(c1)OS(=O)(=O)C(=Cc1ccc(N(C)C)cc1)C2=O	214 to 217
CN(C)Cc1ccc(Cl)cc1C(=O)c1ccccc1F	91 to 92
Cc1cc(C)c2cc(C3CCNC(C)C3)sc2c1 (stereo unspecified)	52 to 57
CCn1c(C(F)(F)F)nn(C2=CCC(F)(C(N)=S)C(N)=C2)c1=O (stereo unspecified)	161
O=CC1=Cc2cc(OCc3ccc(C(F)(F)F)cc3)ccc2OC1	108 to 110
Cc1cc([N+](=O)[O-])c2c(c1Cl)CC(CO)O2 (stereo unspecified)	112 to 115
CCCCc1nc2c(N)nc3ccc(OCC(=O)N(C)Cc4ccccc4)cc3c2n1C	167 to 169
COc1cc(C=CC(=O)O)ccc1NC(C)=O	222 to 230
N#CC1=C(C2CC2)Nc2n[nH]cc2C1c1ccccc1Br (stereo unspecified)	> 250
O=C(C=Cc1ccc(O)c(O)c1)C=Cc1ccc(O)c(O)c1	221 to 223
Cc1ccc(S(=O)(=O)N2CCC[C@H]2C(=O)N[C@@H](Cc2ccc(OCC(=O)NC(C)(C)C)cc2)C(=O)O)cc1	88 to 89
Cc1ccsc1C(Cc1ccccc1N)N(C)C=O (stereo unspecified)	111 to 112
Cc1ccc(C(=O)Nc2c(NC(=O)CN3CCN(c4ncccn4)CC3)ccc3c2C(=O)c2ccccc2C3=O)cc1	267 to 268
Oc1ccc(Oc2ncc(Cl)cc2Cl)cc1	122 to 124
CCN1CCCC1CNC(=O)c1nc(Cl)c(OC)nc1OC (stereo unspecified)	100 to 101
O=C(Nc1c(C(O)(C(F)(F)F)C(F)(F)F)ccc2ccccc12)c1ccc(I)cc1	189 to 190
COC(=O)C(Cl)Cc1cc(F)c(-n2c(=O)cc(C(F)(F)F)n(C)c2=O)cc1[N+](=O)[O-] (stereo unspecified)	60 to 65

From a melting point compilation (Tetko et al.; mined from patent text by program, amines drawn as free bases though some values may be those of a salt)
